pIC50: −log10 of the molar value.
Columns and labels:
[1] = biological target: T1, KRasG12C (Homo sapiens, UniProt P01116, G12C); test: KRasG12C functional assay (HTRF nucleotide exchange / Raf RBD binding); assay type: biochemical; conditions: GDP loaded biotinylated KRasG12C, samples incubated 4 hrs, FRET readout; single experiment or average of two or more
T1 construct: biotin (biotinylated); made in house
Experimental: KRasG12C Functional Assay
All enzyme and substrate solutions were prepared in assay buffer containing 20 mM HEPES (pH 7.5), 5 mM MgCl2, 150 mM NaCl, and 0.01% Tween 20. […] In a separate mix 20 nM GST-Raf Ras binding domain (GST-Raf RBD, purified in house) and 4 μg/ml anti-GST XL665 antibody (Cisbio) was prepared in assay buffer containing 50 mM Potassium Fluoride and 0.05 mg/ml BSA and equilibrated for 4 hours before adding 0.6 μM Guanosine 5′-[γ-thio]triphosphate (GTPγS, Sigma) and 0.08 μM SOS (purified in house). 5 μl of the GST-RAF RBD mix was then dispensed into each well of the assay plate. […] This is detected simultaneously via the specific binding interaction between active GTPγS KRas^G12C with GST-Raf RBD which brings the europium and XL665 into close proximity enabling an increased FRET signal to be detected on a Pherastar (BMG) plate reader equipped with the HTRF filter module. […] IC50 values were calculated from normalised dose-response response FRET data curve fitted in Genedata screener (Basel, Switzerland).

[2] = biological target: T1, KRasG12C; test: KRasG12C Mass Spectrometry adducting assay; assay type: binding; conditions: 10 μM test compound, 4 μM KRasG12C, 4 hours reaction; single experiment or average of two or more
Experimental: KRasG12C Mass Spectrometry Adducting Assay
Enzyme solutions were prepared in assay buffer containing 20 mM HEPES (pH 7.5), 5 mM MgCl2, and 150 mM NaCl. 4 μM GDP loaded biotinylated KRas^G12C was prepared in assay buffer and 50 μl added into each well of a 96 well polypropylene assay plate (Greiner, #651201) containing 500 nl of 1 mM test compounds (final concentration 10 μM), this was allowed to react for 4 hours before the addition of 50 μl 1% Formic acid to quench the reaction. The plate was sealed before reading on a Xevo G2 QTOF (Waters) and Acquity LC system (Waters). 10 μl of sample was injected onto a Xbridge BEH300; C4; 3.5 um; 2.1×50 mm column (Waters) running a 3 minute gradient. Blank samples were run in between each test sample.
Data was analysed in Mass Lynx software (Waters), the Total ion count (TIC) trace was used and the eluted protein peak data combined. Using the combined spectrum the data was deconvoluted using MaxEnt1 method. The peak area for apo-protein KRas^G12C (APO) and KRAS+relative cmpd mass (adduct) were measured, and a percentage adduct was calculated using the following calculation: Percent adduct=100*(area of adduct peak/(sum of APO+adduct peaks)

| SMILES | pIC50 [1] | KRasG12C M.S. Binding Mean adduct % [2] [%] |
| --- | --- | --- |
| C=CC(=O)N1CCN2c3c(cnc4c(OC)c(-c5c(O)cccc5F)c(Cl)cc34)OC[C@H]2C1 (single isomer, unassigned) [Compound 24] | 7.15 | 96 |
| C=CC(=O)N1CCN2c3c(cnc4cc(-c5c(O)cccc5F)c(Cl)cc34)N(C)C(=O)C2(C)C1 (single isomer, unassigned) [Compound 33, 11-Chloro-10-(2-fluoro-6-hydroxyphenyl)-4a,6-dimethyl-3-(prop-2-enoyl)-2,3,4,4a-tetrahydro-1H-pyrazino[1′,2′:4,5]pyrazino[2,3-c]quinolin-5(6H)-one] | 6.13 | 87 |
| C=CC(=O)N1CCN2c3c(cnc4c(C)c(-c5c(O)cccc5F)c(Cl)cc34)OC[C@H]2C1 (single isomer, unassigned) [Compound 38] | 5.01 | 7 |
| C=CC(=O)N1CCN2c3c(cnc4cc(-c5c(F)ccc6cc[nH]c(=O)c56)c(Cl)cc34)OC[C@H]2C1 (single isomer, unassigned) [Compound 45] | 7.59 | 96 |
| C=CC(=O)N1CCN2c3c(cnc4c(F)c(-c5c(C)ccc6[nH]ncc56)c(Cl)cc34)N(C)C(=O)[C@H]2C1 (single isomer, unassigned) [Compound 49] | 7.33 | 95 |
| C=CC(=O)N1CCN2c3c(cnc4cc(-c5c(C)ccc6[nH]cnc56)c(Cl)cc34)OC[C@H]2C1 (single isomer, unassigned) [Compound 65] | 7.33 | 95 |
| C=CC(=O)N1CCN2c3c(cnc4cc(-c5c(C)ccc6[nH]cnc56)c(Cl)cc34)OC[C@H]2C1 (single isomer, unassigned) [Compound 66] | 6.18 | 25 |
| C=CC(=O)N1CCN2c3c(cnc4cc(-c5c(C)ccc6[nH]c(=O)n(C)c56)c(Cl)cc34)OC[C@H]2C1 (single isomer, unassigned) [Compound 67] | 7.33 | 97 |
| C=CC(=O)N1CCN2c3c(cnc4cc(-c5c(C)ccc6[nH]c(=O)n(C)c56)c(Cl)cc34)OC[C@H]2C1 (single isomer, unassigned) [Compound 68] | 4.94 | 4 |
| C=CC(=O)N1CCN2c3c(cnc4cc(-c5c(C)ccc6cc[nH]c(=O)c56)c(Cl)cc34)OC[C@H]2C1 (single isomer, unassigned) [Compound 69] | 5.57 | 12 |
| C=CC(=O)N1CCN2c3c(cnc4cc(-c5c(C)ccc6cc[nH]c(=O)c56)c(Cl)cc34)OC[C@H]2C1 (single isomer, unassigned) [Compound 70] | 7.31 | 94 |
| C=CC(=O)N1CCN2c3c(cnc4cc(-c5c(C)ccc6[nH]c(=O)[nH]c56)c(Cl)cc34)OC[C@H]2C1 (single isomer, unassigned) [Compound 71] | 7.33 | 94 |
| C#Cc1cc2c3c(cnc2cc1-c1c(C)ccc2[nH]ncc12)OC[C@H]1CN(C(=O)C=C)CCN31 (single isomer, unassigned) [Compound 75] | 7.02 | 96 |
| C=CC(=O)N1CCN2c3c(cnc4c(F)c(-c5c(C)ccc6[nH]cnc56)c(Cl)cc34)OC[C@H]2C1 (single isomer, unassigned) [Compound 77] | 7.55 | 60 |
| C=CC(=O)N1CCN2c3c(cnc4c(F)c(-c5c(C)ccc6c5C(=O)NC6)c(Cl)cc34)OC[C@H]2C1 (single isomer, unassigned) [Compound 86] | 7.39 | 95 |
| C=CC(=O)N1CCN2c3c(cnc4c(F)c(-c5c(O)cccc5F)c(Cl)cc34)NC(=O)[C@H]2C1 (single isomer, unassigned) [Compound 88] | 7.85 | 96 |
| C=CC(=O)N1CCN2c3c(cnc4c(C)c(-c5c(O)cccc5F)c(C)nc34)N(C)C(=O)[C@H]2C1 (single isomer, unassigned) [Compound 92] | 7.09 | 97 |
| C=CC(=O)N1CCN2c3c(cnc4cc(-c5c(O)cccc5F)c(Cl)cc34)OC[C@H]2C1 (single isomer, unassigned) [Example 1] | 6.73 | 96 |
| C=CC(=O)N1CCN2c3c(cnc4cc(-c5c(O)cccc5F)c(Cl)cc34)OC[C@H]2C1 (single isomer, unassigned) [Example 2] | 6.55 | 87 |
| C=CC(=O)N1CCN2c3c(cnc4cc(-c5c(C)ccc6[nH]ncc56)c(Cl)cc34)OC[C@H]2C1 (single isomer, unassigned) [Example 3] | 7.09 | 93 |
| C=CC(=O)N1CCN2c3c(cnc4c(F)c(-c5c(O)cccc5F)c(Cl)cc34)OC[C@H]2C1 (single isomer, unassigned) [Example 7] | 7.70 | 95 |
| C=CC(=O)N1CCN2c3c(cnc4c(F)c(-c5c(O)cccc5F)c(Cl)cc34)N(C)C(=O)C2C1 (single isomer, unassigned) [Example 18, 3-acryloyl-11-chloro-9-fluoro-10-(2-fluoro-6-hydroxyphenyl)-6-methyl-2,3,4,4a-tetrahydro-1H-pyrazino[1′,2′:4,5]pyrazino[2,3-c]quinolin-5(6H)-one] | 5.46 | 3 |
| C=CC(=O)N1CCN2c3c(cnc4c(F)c(-c5c(O)cccc5F)c(Cl)cc34)N(C)C(=O)C2C1 (single isomer, unassigned) [Example 19, 3-acryloyl-11-chloro-9-fluoro-10-(2-fluoro-6-hydroxyphenyl)-6-methyl-2,3,4,4a-tetrahydro-1H-pyrazino[1′,2′:4,5]pyrazino[2,3-c]quinolin-5(6H)-one] | < 5.04 | 3 |
| C=CC(=O)N1CCN2c3c(cnc4c(F)c(-c5c(O)cccc5F)c(Cl)cc34)N(C)C(=O)C2C1 (single isomer, unassigned) [Example 20, 3-acryloyl-11-chloro-9-fluoro-10-(2-fluoro-6-hydroxyphenyl)-6-methyl-2,3,4,4a-tetrahydro-1H-pyrazino[1′,2′:4,5]pyrazino[2,3-c]quinolin-5(6H)-one] | 6.20 | 51 |
| C=CC(=O)N1C[C@@H]2C(=O)N(C)c3cnc4c(F)c(-c5c(O)cccc5F)c(Cl)cc4c3N2C[C@H]1C (single isomer, unassigned) [Example 21] | 5.02 | 15 |
| C=CC(=O)N1CCN2c3c(cnc4cc(-c5c(O)cccc5F)c(Cl)c(OC)c34)OC[C@H]2C1 [Compound 83, 1-[(4aR)-11-Chloro-10-(2-fluoro-6-hydroxyphenyl)-12-methoxy-1,2,4a,5-tetrahydropyrazino[1′,2′:4,5][1,4]oxazino[2,3-c]quinolin-3(4H)-yl]prop-2-en-1-one] | 6.59 | 77 |
| CN(C)C/C=C/C(=O)N1CCN2c3c(cnc4cc(-c5c(O)cccc5F)c(Cl)cc34)OC[C@H]2C1 [Example 9, (2E)-1-[(4aR)-11-Chloro-10-(2-fluoro-6-hydroxyphenyl)-1,2,4a,5-tetrahydropyrazino[1′,2′:4,5][1,4]oxazino[2,3-c]quinolin-3(4H)-yl]-4-(dimethylamino)but-2-en-1-one] | 6.47 | 74 |
